Results from ChEMBL document CHEMBL4219047, “Optimization of peptide-based polyagonists for treatment of diabetes and obesity” (Bioorg Med Chem, 2018).

How the values were obtained:
[1] = target: T1, Glucagon-like peptide 1 receptor (Homo sapiens, UniProt P43220); assay: Agonist activity at human GLP1 receptor expressed in CHO cells assessed as increase in cAMP level by TR-FRET assay; type: functional, cell-based
Glucagon receptor [2] = target: T2, Glucagon receptor (Homo sapiens, UniProt P47871); assay: Agonist activity at human GCG receptor expressed in CHO cells assessed as increase in cAMP level by TR-FRET assay; type: functional, cell-based
Glucagon receptor [3] = target: T2, Glucagon receptor; assay: Agonist activity at human GCG receptor expressed in CHO cells assessed as increase in cAMP level by TR-FRET assay relative to glucagon; type: functional, cell-based
[4] = target: T3, Glucagon-like peptide 1 receptor (Mus musculus, UniProt O35659); assay: Agonist activity at mouse GLP1 receptor expressed in CHO cells assessed as increase in cAMP level by TR-FRET assay; type: functional, cell-based
T3 sequence (O35659 whole entry): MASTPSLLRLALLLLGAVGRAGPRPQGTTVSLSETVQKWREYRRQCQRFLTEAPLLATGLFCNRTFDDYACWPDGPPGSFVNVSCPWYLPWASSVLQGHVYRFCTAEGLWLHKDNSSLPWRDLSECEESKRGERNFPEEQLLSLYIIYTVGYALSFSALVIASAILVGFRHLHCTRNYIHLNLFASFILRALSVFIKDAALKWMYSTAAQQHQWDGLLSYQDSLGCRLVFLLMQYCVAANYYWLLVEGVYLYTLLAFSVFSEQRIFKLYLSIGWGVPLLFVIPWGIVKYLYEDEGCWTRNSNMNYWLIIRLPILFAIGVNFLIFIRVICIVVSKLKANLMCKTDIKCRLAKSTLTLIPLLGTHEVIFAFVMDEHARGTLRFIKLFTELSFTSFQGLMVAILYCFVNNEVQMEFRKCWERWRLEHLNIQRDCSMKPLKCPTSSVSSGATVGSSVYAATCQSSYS

Mus musculus = organism: Mus musculus; assay: Selectivity ratio of EC50 for mouse GLP1 receptor to EC50 for mouse GCG receptor
Glucagon receptor [5] = target: Glucagon receptor (Mus musculus, UniProt Q61606); assay: Agonist activity at mouse GCG receptor expressed in CHO cells assessed as increase in cAMP level by TR-FRET assay; type: functional, cell-based
[6] = target: T4, Gastric inhibitory polypeptide receptor (Homo sapiens) (UniProt P48546); assay: Agonist activity at human GIP receptor expressed in HEK293 cells assessed as increase in cAMP level after 5 hrs by CRE driven luciferase reporter gene assay relative to GIP; type: functional, cell-based; parameters: concentration or dose not given beside the values
T4 sequence (whole entry): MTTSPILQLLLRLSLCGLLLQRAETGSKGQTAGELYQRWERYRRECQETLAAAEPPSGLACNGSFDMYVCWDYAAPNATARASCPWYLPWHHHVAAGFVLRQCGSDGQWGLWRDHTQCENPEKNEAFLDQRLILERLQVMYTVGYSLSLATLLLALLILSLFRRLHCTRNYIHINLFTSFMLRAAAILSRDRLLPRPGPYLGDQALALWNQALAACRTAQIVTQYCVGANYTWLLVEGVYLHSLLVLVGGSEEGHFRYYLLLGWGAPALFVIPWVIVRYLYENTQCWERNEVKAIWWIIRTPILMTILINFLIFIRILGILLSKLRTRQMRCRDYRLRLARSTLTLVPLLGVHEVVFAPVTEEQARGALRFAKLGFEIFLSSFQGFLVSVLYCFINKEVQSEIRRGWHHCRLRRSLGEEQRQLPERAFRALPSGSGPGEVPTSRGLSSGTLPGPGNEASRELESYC

[7] = target: T1, Glucagon-like peptide 1 receptor; assay: Agonist activity at human GLP1 receptor expressed in HEK293 cells assessed as increase in cAMP level after 5 hrs by CRE driven luciferase reporter gene assay relative to GLP1; type: functional, cell-based; parameters: concentration or dose not given beside the values
Glucagon receptor [8] = target: T2, Glucagon receptor; assay: Agonist activity at human GCG receptor expressed in HEK293 cells assessed as increase in cAMP level after 5 hrs by CRE driven luciferase reporter gene assay relative to glucagon; type: functional, cell-based
[9] = target: T1, Glucagon-like peptide 1 receptor; assay: Agonist activity at human GLP1 receptor expressed in HEK293 cells assessed as increase in cAMP level after 5 hrs by CRE driven luciferase reporter gene assay; type: functional, cell-based
Glucagon receptor [10] = target: T2, Glucagon receptor; assay: Agonist activity at human GCG receptor expressed in HEK293 cells assessed as increase in cAMP level after 5 hrs by CRE driven luciferase reporter gene assay; type: functional, cell-based
[11] = target: T5, Gastric inhibitory polypeptide receptor (Homo sapiens, UniProt P48546); assay: Agonist activity at human GIP receptor expressed in HEK293 cells assessed as increase in cAMP level after 5 hrs by CRE driven luciferase reporter gene assay; type: functional, cell-based
T5 sequence (P48546 whole entry): T4 sequence (whole entry)

T2 sequence (P47871 whole entry): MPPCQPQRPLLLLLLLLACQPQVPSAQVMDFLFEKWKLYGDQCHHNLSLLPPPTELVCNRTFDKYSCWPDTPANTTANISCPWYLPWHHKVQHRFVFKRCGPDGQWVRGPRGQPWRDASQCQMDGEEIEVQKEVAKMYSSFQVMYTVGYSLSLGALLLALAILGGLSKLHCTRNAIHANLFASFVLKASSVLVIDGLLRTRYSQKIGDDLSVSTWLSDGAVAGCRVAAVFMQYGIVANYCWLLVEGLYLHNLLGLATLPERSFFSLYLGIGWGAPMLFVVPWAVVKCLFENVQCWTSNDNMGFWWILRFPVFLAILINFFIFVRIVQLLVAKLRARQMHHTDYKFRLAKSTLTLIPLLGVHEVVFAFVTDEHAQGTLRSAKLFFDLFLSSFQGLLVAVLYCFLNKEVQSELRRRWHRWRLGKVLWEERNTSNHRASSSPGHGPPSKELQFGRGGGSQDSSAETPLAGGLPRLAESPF
T1 sequence (P43220 whole entry): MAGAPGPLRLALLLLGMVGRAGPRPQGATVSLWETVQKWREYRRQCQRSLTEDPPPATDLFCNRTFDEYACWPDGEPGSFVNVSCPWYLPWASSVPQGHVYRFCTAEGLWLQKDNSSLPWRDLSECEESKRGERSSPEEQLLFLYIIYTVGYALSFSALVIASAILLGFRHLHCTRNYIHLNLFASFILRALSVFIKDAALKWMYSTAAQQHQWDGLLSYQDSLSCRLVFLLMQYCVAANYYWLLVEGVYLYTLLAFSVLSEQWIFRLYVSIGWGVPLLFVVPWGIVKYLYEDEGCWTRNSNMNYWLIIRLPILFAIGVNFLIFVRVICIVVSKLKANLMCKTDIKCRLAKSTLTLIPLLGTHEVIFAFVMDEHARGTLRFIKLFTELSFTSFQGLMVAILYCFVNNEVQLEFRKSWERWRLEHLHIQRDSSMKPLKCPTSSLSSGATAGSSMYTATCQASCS
Sequence of Glucagon receptor (Mus musculus, UniProt Q61606) (Q61606 whole entry): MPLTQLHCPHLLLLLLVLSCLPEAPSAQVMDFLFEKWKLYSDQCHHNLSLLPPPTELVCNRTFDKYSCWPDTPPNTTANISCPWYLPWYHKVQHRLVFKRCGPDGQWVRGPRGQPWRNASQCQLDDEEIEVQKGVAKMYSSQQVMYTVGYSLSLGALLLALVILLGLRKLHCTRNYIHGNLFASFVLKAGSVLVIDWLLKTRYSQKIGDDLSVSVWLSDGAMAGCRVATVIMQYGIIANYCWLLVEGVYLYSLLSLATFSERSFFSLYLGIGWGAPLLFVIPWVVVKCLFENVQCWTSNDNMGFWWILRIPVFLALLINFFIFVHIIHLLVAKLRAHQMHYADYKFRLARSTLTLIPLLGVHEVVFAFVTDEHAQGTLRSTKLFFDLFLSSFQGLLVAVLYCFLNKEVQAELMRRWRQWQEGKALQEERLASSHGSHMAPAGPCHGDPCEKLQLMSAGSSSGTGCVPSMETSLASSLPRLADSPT

EC50 [1] [nM]	EC50 (Glucagon receptor [2]) [nM]	Activity (Glucagon receptor [3]) [%]	EC50 [4] [nM]	Ratio EC50 (Mus musculus)	EC50 (Glucagon receptor [5]) [nM]	Activity [6] [%]	Activity [7] [%]	Activity (Glucagon receptor [8]) [%]	EC50 [9] [nM]	EC50 (Glucagon receptor [10]) [nM]	EC50 [11] [nM]	SMILES
0.09	> 1000	< 0.05	0.03	< 0.001	> 100							CC[C@H](C)[C@H](NC(=O)[C@H](Cc1ccccc1)NC(=O)[C@H](CCC(=O)O)NC(=O)[C@H](CCCCN)NC(=O)[C@H](C)NC(=O)[C@H](C)NC(=O)[C@H](CCC(N)=O)NC(=O)CNC(=O)[C@H](CCC(=O)O)NC(=O)[C@H](CC(C)C)NC(=O)[C@H](Cc1ccc(O)cc1)NC(=O)[C@H](CCCCN)NC(=O)[C@H](CO)NC(=O)[C@@H](NC(=O)[C@H](CC(=O)O)NC(=O)[C@H](CO)NC(=O)[C@@H](NC(=O)[C@H](Cc1ccccc1)NC(=O)[C@@H](NC(=O)CNC(=O)[C@H](CCC(=O)O)NC(=O)[C@H](C)NC(=O)[C@@H](N)Cc1cnc[nH]1)[C@@H](C)O)[C@@H](C)O)C(C)C)C(=O)N[C@@H](C)C(=O)N[C@@H](Cc1c[nH]c2ccccc12)C(=O)N[C@@H](CC(C)C)C(=O)N[C@H](C(=O)N[C@@H](CCCCN)C(=O)NCC(=O)N[C@@H](CCCNC(=N)N)C(N)=O)C(C)C
						1	933	533	0.003	0.006	1.65	CCCCCCCCCCCCCCCC(=O)N[C@@H](CCC(=O)NCCCC[C@H](NC(=O)[C@H](CC(=O)O)NC(=O)[C@H](CO)NC(=O)[C@@H](NC(=O)[C@H](Cc1ccccc1)NC(=O)[C@@H](NC(=O)CNC(=O)[C@H](CCC(N)=O)NC(=O)[C@@H](CO)NC(=O)[C@@H](N)Cc1cnc[nH]1)[C@@H](C)O)[C@@H](C)O)C(=O)N[C@@H](CO)C(=O)N[C@@H](CCCCN)C(=O)N[C@@H](Cc1ccc(O)cc1)C(=O)N[C@@H](CC(C)C)C(=O)N[C@@H](CC(=O)O)C(=O)N[C@@H](CCC(=O)O)C(=O)N[C@@H](CCCNC(=N)N)C(=O)N[C@@H](C)C(=O)N[C@@H](C)C(=O)N[C@@H](CCC(N)=O)C(=O)N[C@@H](CC(=O)O)C(=O)N[C@@H](Cc1ccccc1)C(=O)N[C@H](C(=O)N[C@@H](CCC(N)=O)C(=O)N[C@@H](Cc1c[nH]c2ccccc12)C(=O)N[C@@H](CC(C)C)C(=O)N[C@@H](CC(C)C)C(=O)N[C@@H](CC(=O)O)C(=O)N[C@H](C(N)=O)[C@@H](C)O)C(C)C)C(=O)O
						1	187	114	0.015	0.028	2.19	CCCCCCCCCCCCCCCC(=O)N[C@@H](CCC(=O)NCCCC[C@H](NC(=O)[C@H](CC(=O)O)NC(=O)[C@H](CO)NC(=O)[C@@H](NC(=O)[C@H](Cc1ccccc1)NC(=O)[C@@H](NC(=O)CNC(=O)[C@H](CCC(N)=O)NC(=O)C(C)(C)NC(=O)[C@@H](N)Cc1cnc[nH]1)[C@@H](C)O)[C@@H](C)O)C(=O)N[C@@H](CO)C(=O)N[C@@H](CCCCN)C(=O)N[C@@H](Cc1ccc(O)cc1)C(=O)N[C@@H](CC(C)C)C(=O)N[C@@H](CC(=O)O)C(=O)NC(C)(C)C(=O)N[C@@H](CCCNC(=N)N)C(=O)N[C@@H](C)C(=O)N[C@@H](C)C(=O)N[C@@H](CCC(N)=O)C(=O)N[C@@H](CC(=O)O)C(=O)N[C@@H](Cc1ccccc1)C(=O)N[C@H](C(=O)N[C@@H](CCC(N)=O)C(=O)N[C@@H](Cc1c[nH]c2ccccc12)C(=O)N[C@@H](CC(C)C)C(=O)N[C@@H](CCSC)C(=O)N[C@@H](CC(=O)O)C(=O)N[C@H](C(N)=O)[C@@H](C)O)C(C)C)C(=O)O
